Measurements published in patent publication US11000033B2, “Ketone or oxime compound, and herbicide” (NISSAN CHEMICAL CORPORATION, priority 2014, dated 2021).

How the values were obtained:
Assay type in all cases: in vivo
[1] = tested on: Lolium multiflorum Lam.; assay: Test Example 4: herbicidal effect by soil treatment (symbol K); details: application herbicide amount 320 g/ha
Summary of the method: (§1)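 Seeds were sown in sterilized diluvial soil, covered with about 1.5 cm of soil, and the soil surface was sprayed with a water-diluted emulsion of the compound at a predetermined rate. Plants grew in a greenhouse at 25° C. to 30° C.; effects were scored visually 3 weeks after application.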

[2] = tested on: rice plant; assay: Test Example 5: effect on crop by foliage application, plastic box (symbol b); details: 320 g/ha, 3 weeks after application
Summary of the method: (§2)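 Seeds were sown in spots in sterilized diluvial soil held in a plastic box 21 cm × 13 cm × 7 cm deep, covered with about 1.5 cm of soil, and grown in a greenhouse at 25° C. to 30° C.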

[3] = tested on: Lolium multiflorum Lam.; assay: Test Example 5: herbicidal effect by foliage application, plastic box (symbol K); details: 320 g/ha, 3 weeks after application
Summary of the method: (§3)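 Visual herbicidal score, taken three weeks post-application, of seedlings sprayed on the foliage with water-diluted emulsion at a predetermined amount; plants were 14 days old, greenhouse-raised at 25° C. to 30° C.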

[4] = tested on: wheat; assay: Test Example 5: effect on crop by foliage application, plastic box (symbol e); details: 320 g/ha, 3 weeks after application
Summary of the method: as §2

[5] = tested on: Alopecurus myosuroides; assay: Test Example 4: herbicidal effect by soil treatment (symbol J); details: application herbicide amount 320 g/ha
Summary of the method: as §1

[6] = tested on: directly sowed rice plant; assay: Test Example 3: effect on crop by foliage application, Wagner pot (symbol b); details: application herbicide amount 320 g/ha
Summary of the method: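 Wagner pot (1/10000 are), alluvial soil, submerged 0.1–0.5 cm; sown E. crus-galli var. crus-galli, L. chinensis, C. difformis, rice; greenhouse 25–30 °C.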

[7] = tested on: beet; assay: Test Example 4: effect on crop by soil treatment (symbol f); details: application herbicide amount 320 g/ha
Summary of the method: (§4)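 Grown at 25° C. to 30° C. in a greenhouse, the crops came from seed sown spot-wise in sterilized diluvial soil under roughly 1.5 cm of covering soil.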

[8] = tested on: Echinochloa oryzacola Vasing.; assay: Test Example 2: herbicidal activity, application during weed generation in submerged conditions (symbol A); details: Table 23; application herbicide amount 320 g/ha; grade 0-5 by criteria of Test Example 1
Summary of the method: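 Alluvial soil in pots was flooded to a 4 cm water depth and sown with a mix of the three weed species, then grown in a greenhouse at 25° C. to 30° C. At the one- to two-leaf stage, an emulsifiable formulation diluted in water to a set dose was applied to the water surface. Effects were scored visually 3 weeks later.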

[9] = tested on: rapeseed; assay: Test Example 4: effect on crop by soil treatment (symbol g); details: application herbicide amount 320 g/ha
Summary of the method: as §4

[10] = tested on: rice; assay: Test Example 4: effect on crop by soil treatment (symbol b); details: application herbicide amount 320 g/ha
Summary of the method: as §4

[11] = tested on: Digitaria ciliaris; assay: Test Example 4: herbicidal effect by soil treatment (symbol F); details: application herbicide amount 320 g/ha
Summary of the method: as §1

[12] = tested on: corn; assay: Test Example 4: effect on crop by soil treatment (symbol c); details: application herbicide amount 320 g/ha
Summary of the method: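 Greenhouse culture at 25° C. to 30° C. followed sowing of seed in spots on sterilized diluvial soil with a soil cover close to 1.5 cm thick.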

[13] = tested on: Alopecurus myosuroides; assay: Test Example 5: herbicidal effect by foliage application, plastic box (symbol J); details: 320 g/ha, 3 weeks after application
Summary of the method: as §3

[14] = tested on: wheat; assay: Test Example 4: effect on crop by soil treatment (symbol e); details: application herbicide amount 320 g/ha
Summary of the method: as §4

[15] = tested on: Stellaria media; assay: Test Example 4: herbicidal effect by soil treatment (symbol P); details: application herbicide amount 320 g/ha
Summary of the method: as §1

For `COc1cc(C)c(C2=C(O)CC(CC(C)=O)C2=O)c(C)c1` (stereo not drawn) [7-020], the “Herbicidal effect grade, K: Lolium multiflorum Lam.” value (from here on “Herbicidal effect grade, K”) [1] was 3 (Herbicidal ratio of 40% or higher and lower than 70%), the “b: directly sowed rice plant, effect on crop (criteria of Test Example 1)” value [2] was 3 (Herbicidal ratio of 40% or higher and lower than 70%) and the “K: Lolium multiflorum Lam., herbicidal effect (criteria of Test Example 1)” value [3] was 4 (Herbicidal ratio of 70% or higher and lower than 90%). The “e: wheat, effect on crop (criteria of Test Example 1)” value [4] was 0 (Herbicidal ratio of 5% or lower (almost no effect)), the “Herbicidal effect grade, J: Alopecurus myosuroides” value (shortened to “Herbicidal effect grade, J”) [5] was 3 (Herbicidal ratio of 40% or higher and lower than 70%) and the “effect on crop b (directly sowed rice plant), grade 0-5” value (shortened to “effect on crop b”) [6] was 4 (Herbicidal ratio of 70% or higher and lower than 90%). The “Effect on crop grade, f: beet” value [7] was 0 (Herbicidal ratio of 5% or lower (almost no effect)), the “Herbicidal effect grade, A: Echinochloa oryzacola Vasing.” value [8] was 1 (Herbicidal ratio of 5% or higher and lower than 20%) and the “Effect on crop grade, g: rapeseed” value [9] was 0 (Herbicidal ratio of 5% or lower (almost no effect)). The “Effect on crop grade, b: directly sowed rice plant” value (“Effect on crop grade, b” below) [10] was 5 (Herbicidal ratio of 90% or more (almost completely withered)), the “Herbicidal effect grade, F: Digitaria ciliaris” value (“Herbicidal effect grade, F” for short) [11] was 3 (Herbicidal ratio of 40% or higher and lower than 70%) and the “Effect on crop grade, c: corn” value [12] was 0 (Herbicidal ratio of 5% or lower (almost no effect)). For the same molecule, the “J: Alopecurus myosuroides, herbicidal effect (criteria of Test Example 1)” value [13] was 4 (Herbicidal ratio of 70% or higher and lower than 90%), the “Effect on crop grade, e: wheat” value [14] was 0 (Herbicidal ratio of 5% or lower (almost no effect)) and the “Herbicidal effect grade, P: Stellaria media” value (from here on “Herbicidal effect grade, P”) [15] was 0 (Herbicidal ratio of 5% or lower (almost no effect)).

`CON=C(C)CC1CC(O)=C(c2c(C)cc(C(C)=NOC)cc2C)C1=O` (stereo not drawn) [6-065] was tested, and the “K: Lolium multiflorum Lam., herbicidal effect grade” value [1] was 5 (Herbicidal ratio of 90% or more (almost completely withered)), the “b: directly sowed rice plant, effect on crop (criteria of Test Example 1)” value [2] was 5 (Herbicidal ratio of 90% or more (almost completely withered)) and the “K: Lolium multiflorum Lam., herbicidal effect (criteria of Test Example 1)” value [3] was 5 (Herbicidal ratio of 90% or more (almost completely withered)). For the same molecule, the “e: wheat, effect on crop (criteria of Test Example 1)” value [4] was 5 (Herbicidal ratio of 90% or more (almost completely withered)), the “J: Alopecurus myosuroides, herbicidal effect grade” value [5] was 5 (Herbicidal ratio of 90% or more (almost completely withered)) and the “effect on crop b” value [6] was 5 (Herbicidal ratio of 90% or more (almost completely withered)). The “f: beet, effect on crop grade” value [7] was 2 (Herbicidal ratio of 20% or higher and lower than 40%), the “Herbicidal effect grade, A: Echinochloa oryzacola Vasing.” value [8] was 5 (Herbicidal ratio of 90% or more (almost completely withered)) and the “g: rapeseed, effect on crop grade” value [9] was 3 (Herbicidal ratio of 40% or higher and lower than 70%). For the same molecule, the “b: directly sowed rice plant, effect on crop grade” value [10] was 5 (Herbicidal ratio of 90% or more (almost completely withered)), the “F: Digitaria ciliaris, herbicidal effect grade” value [11] was 5 (Herbicidal ratio of 90% or more (almost completely withered)) and the “c: corn, effect on crop grade” value [12] was 5 (Herbicidal ratio of 90% or more (almost completely withered)). For the same molecule, the “J: Alopecurus myosuroides, herbicidal effect (criteria of Test Example 1)” value [13] was 5 (Herbicidal ratio of 90% or more (almost completely withered)), the “e: wheat, effect on crop grade” value [14] was 5 (Herbicidal ratio of 90% or more (almost completely withered)) and the “P: Stellaria media, herbicidal effect grade” value [15] was 4 (Herbicidal ratio of 70% or higher and lower than 90%).

In the case of `CON=C(C)CC1CC(OC(=O)COc2ccccc2)=C(c2c(C)cc(C)cc2OC)C1=O` (stereo not drawn) [6-091], the “Herbicidal effect grade, K” value [1] is reported as 5 (Herbicidal ratio of 90% or more (almost completely withered)), the “b: directly sowed rice plant, effect on crop (criteria of Test Example 1)” value [2] is reported as 5 (Herbicidal ratio of 90% or more (almost completely withered)) and the “K: Lolium multiflorum Lam., herbicidal effect (criteria of Test Example 1)” value [3] is reported as 5 (Herbicidal ratio of 90% or more (almost completely withered)). The “e: wheat, effect on crop (criteria of Test Example 1)” value [4] was 5 (Herbicidal ratio of 90% or more (almost completely withered)), the “Herbicidal effect grade, J” value [5] was 5 (Herbicidal ratio of 90% or more (almost completely withered)) and the “effect on crop b” value [6] was 5 (Herbicidal ratio of 90% or more (almost completely withered)). For the same molecule, the “Effect on crop grade, f: beet” value [7] was 1 (Herbicidal ratio of 5% or higher and lower than 20%), the “Herbicidal effect grade, A: Echinochloa oryzacola Vasing.” value [8] was 5 (Herbicidal ratio of 90% or more (almost completely withered)) and the “Effect on crop grade, g: rapeseed” value [9] was 4 (Herbicidal ratio of 70% or higher and lower than 90%). The “Effect on crop grade, b” value [10] was 5 (Herbicidal ratio of 90% or more (almost completely withered)), the “Herbicidal effect grade, F” value [11] was 5 (Herbicidal ratio of 90% or more (almost completely withered)) and the “Effect on crop grade, c: corn” value [12] was 5 (Herbicidal ratio of 90% or more (almost completely withered)). The “J: Alopecurus myosuroides, herbicidal effect (criteria of Test Example 1)” value [13] was 5 (Herbicidal ratio of 90% or more (almost completely withered)), the “Effect on crop grade, e: wheat” value [14] was 5 (Herbicidal ratio of 90% or more (almost completely withered)) and the “Herbicidal effect grade, P” value [15] was 4 (Herbicidal ratio of 70% or higher and lower than 90%).

For `CCc1cc(Br)cc(C)c1C1=C(O)CC(CC(C)=O)C1=O` (stereo not drawn) [7-003], the “Herbicidal effect grade, K” value [1] was 5 (Herbicidal ratio of 90% or more (almost completely withered)), the “b: directly sowed rice plant, effect on crop (criteria of Test Example 1)” value [2] was 5 (Herbicidal ratio of 90% or more (almost completely withered)) and the “K: Lolium multiflorum Lam., herbicidal effect (criteria of Test Example 1)” value [3] was 5 (Herbicidal ratio of 90% or more (almost completely withered)). For the same molecule, the “e: wheat, effect on crop (criteria of Test Example 1)” value [4] was 0 (Herbicidal ratio of 5% or lower (almost no effect)), the “Herbicidal effect grade, J” value [5] was 5 (Herbicidal ratio of 90% or more (almost completely withered)) and the “effect on crop b” value [6] was 5 (Herbicidal ratio of 90% or more (almost completely withered)). For the same molecule, the “Effect on crop grade, f: beet” value [7] was 0 (Herbicidal ratio of 5% or lower (almost no effect)), the “Herbicidal effect grade, A: Echinochloa oryzacola Vasing.” value [8] was 2 (Herbicidal ratio of 20% or higher and lower than 40%) and the “Effect on crop grade, g: rapeseed” value [9] was 0 (Herbicidal ratio of 5% or lower (almost no effect)). The “Effect on crop grade, b” value [10] was 5 (Herbicidal ratio of 90% or more (almost completely withered)), the “Herbicidal effect grade, F” value [11] was 5 (Herbicidal ratio of 90% or more (almost completely withered)) and the “Effect on crop grade, c: corn” value [12] was 0 (Herbicidal ratio of 5% or lower (almost no effect)). For the same molecule, the “J: Alopecurus myosuroides, herbicidal effect (criteria of Test Example 1)” value [13] was 5 (Herbicidal ratio of 90% or more (almost completely withered)), the “Effect on crop grade, e: wheat” value [14] was 0 (Herbicidal ratio of 5% or lower (almost no effect)) and the “Herbicidal effect grade, P” value [15] was 0 (Herbicidal ratio of 5% or lower (almost no effect)).

For `CON=C(C)C(=O)C1CC(O)=C(c2c(C)cc(C)cc2C)C1=O` (stereo not drawn) [8-002], the “Herbicidal effect grade, K” value [1] was 0 (Herbicidal ratio of 5% or lower (almost no effect)), the “b: directly sowed rice plant, effect on crop grade” value [2] was 4 (Herbicidal ratio of 70% or higher and lower than 90%) and the “K: Lolium multiflorum Lam., herbicidal effect grade” value [3] was 5 (Herbicidal ratio of 90% or more (almost completely withered)). For the same molecule, the “e: wheat, effect on crop grade” value [4] was 0 (Herbicidal ratio of 5% or lower (almost no effect)), the “Herbicidal effect grade, J” value [5] was 0 (Herbicidal ratio of 5% or lower (almost no effect)) and the “b (directly sowed rice plant) effect on crop grade” value ([6]; Table 24) was 0 (Herbicidal ratio of 5% or lower (almost no effect)). The “Effect on crop grade, f: beet” value [7] was 0 (Herbicidal ratio of 5% or lower (almost no effect)), the “Herbicidal effect grade, A: Echinochloa oryzacola Vasing.” value [8] was 0 (Herbicidal ratio of 5% or lower (almost no effect)) and the “Effect on crop grade, g: rapeseed” value [9] was 0 (Herbicidal ratio of 5% or lower (almost no effect)). For the same molecule, the “Effect on crop grade, b” value [10] was 0 (Herbicidal ratio of 5% or lower (almost no effect)), the “Herbicidal effect grade, F” value [11] was 3 (Herbicidal ratio of 40% or higher and lower than 70%) and the “Effect on crop grade, c: corn” value [12] was 0 (Herbicidal ratio of 5% or lower (almost no effect)). The “J: Alopecurus myosuroides, herbicidal effect grade” value [13] was 4 (Herbicidal ratio of 70% or higher and lower than 90%), the “Effect on crop grade, e: wheat” value [14] was 0 (Herbicidal ratio of 5% or lower (almost no effect)) and the “Herbicidal effect grade, P” value [15] was 0 (Herbicidal ratio of 5% or lower (almost no effect)).
